This is an account of results in PMC8296708, “The pan HDAC inhibitor Givinostat improves muscle function and histological parameters in two Duchenne muscular dystrophy murine models expressing different haplotypes of the LTBP4 gene” (Skeletal Muscle, 2021).

In this assay the test system is mdx mice. The assay is described as follows: Myofiber cross-sectional area (CSA) in mdx mice. The format is in vivo, mouse (C57BL/10ScSn-Dmd^mdx/J). An excerpt: Tibialis anterior (TA), gastrocnemius (GAS), DIA, and heart were collected from mice maintained under isoflurane anesthesia and sacrificed by cervical dislocation. These muscles were collected from C57BL/10J wt and mdx (5 mice/group) at the end of treatments and from DBA/2J wt and D2.B10 mice (5 mice/group) at two different time points to be examined by a pathologist (for more details see Additional Table 1). Due to the results obtained by the functional tests, muscles from only some treatment groups were analyzed in both DMD models (see Additional Table 1). All the collected muscles were fixed in 10% buffered formalin solution (Bio-optica, Milan, Italy) at + 4 °C for at least 48 h. After fixation, muscular samples were transversely trimmed, caged, and paraffin embedded overnight with an Automated Vacuum Tissue Processor Floor (ETP, Histo-Line Laboratories) and included in paraffin blocks. Serial transverse cross-sections (4 μm thick) were cut with a microtome (Leica RM 2255), collected onto uncoated glass slides, and stained using a standard protocol for hematoxylin and eosin (Mayer hematoxylin & Aqueous G Eosin 1%, Bio-Optica) and Sirius Red staining (Direct Red 80, Sigma-Aldrich). For the image analysis and quantitation, hematoxylin and eosin- and Sirius Red-stained slides were examined with an Olympus BX51 light microscope. From each sample, 1 to 3 random microphotographs at the magnification of × 4 and × 10 (TA, GAS and heart) or × 20 (DIA) were collected using Image-Pro Plus system. The digital images were processed by a pathologist using ImageJ software (U.S. National Institutes of Health, Bethesda, MD, USA). To quantify CSA and centralized nuclei (%) on hematoxylin and eosin-stained sections, one hundred myofibers were manually measured for each muscle/mouse using a tablet pen (Wacom Intruos) and analyzed by the ImageJ software after a linear calibration of 150 μm. The fibrotic area, corresponding to the area stained in red, was compared to the total area of the tissue section, and the results were expressed as percentage fibrosis. The % of fibrosis of muscles in the different treatment groups was expressed by averaging the three values obtained from each muscle.
The deciles of the CSA of the animals treated with Givinostat at the different doses were plotted against the corresponding deciles of the vehicle-treated mice and a linear regression analysis was performed on natural [CSAtreated = b CSAcontrol + a] and log_transformed data [log(CSAtreated) = log(a) + b log(CSAcontrol)]. […] In case of untransformed data, this means that the effect of Givinostat treatment is additive and any decile of the CSAtreatment distribution may be derived from the control data summing up a constant quantity (S) to each fiber AREA of the control group (CSAtreated = CSAcontrol + S). In case of log_transformed data, the effect of Givinostat has to be considered as a multiplicative factor on any generic fiber of the muscle under evaluation, whose size, after the treatment, results K times larger in comparison to the control group value (CSAtreated […] = K × CSAcontrol, with K = 10^a). The S or K parameter values were then determined through an iterative estimation procedure, based on sum of squares (SSQ) minimization, directly comparing the CSA distribution observed in treated animals with that obtained summing up the S value or multiplying by K the CSA values of the control group.

Regarding `CCN(CC)Cc1ccc2cc(COC(=O)Nc3ccc(C(=O)NO)cc3)ccc2c1` [Givinostat], the “DIA fiber CSA, peak value” (37.5 mg/kg (same as vehicle)) is listed as 550 μm^2. Further, the “GAS fiber CSA, peak of distribution” value (37.5 mg/kg, after 105 days (vehicle peak 500)) worked out at 1100 μm^2. Besides, for the setting “37.5 mg/kg, multiplicative model”, the “K, multiplicative factor on GAS fiber CSA vs vehicle” value was found to be 1.72. Further, the “TA fiber CSA, peak value” (10 and 37.5 mg/kg (vehicle 700)) came out at 900 μm^2. The “S, shift effect parameter on TA CSA vs vehicle” value (additive model) stood at 140 μm^2.
